In article PMC12715507, “CARF-HAD phosphatase effectors provide immunity during the type III-A CRISPR–Cas response” (Nucleic Acids Research, 2025):

Target: T1, BbChp
T1 construct: CARF domain (307–528), N-terminal 6xHis
Test: thermal shift assay (DSF) titration, Tm […] to […] °C
Format: binding, Bacteroidales bacterium

Nc1ncnc2c1ncn2[C@@H]1O[C@@H]2COP(=O)(O)O[C@H]3[C@@H](O)[C@H](n4cnc5c(N)ncnc54)O[C@@H]3COP(=O)(O)O[C@H]3[C@@H](O)[C@H](n4cnc5c(N)ncnc54)O[C@@H]3COP(=O)(O)O[C@H]3[C@@H](O)[C@H](n4cnc5c(N)ncnc54)O[C@@H]3COP(=O)(O)O[C@H]2[C@H]1O [cA4]
Kd: 273 nM
